Data from publication PMC4418665, “Cyclization of the Urokinase Receptor-Derived Ser-Arg-Ser-Arg-Tyr Peptide Generates a Potent Inhibitor of Trans-Endothelial Migration of Monocytes” (PLoS ONE, 2015).
Peptide text beside a SMILES is read from it.

Tested on: RBL-2H3/ETFR cells
Test: RBL-2H3/ETFR cell migration, xCELLigence RTCA
Format: cell-based, rat
Details: 4 hours, Cell Index, quadruplicate
Experimental: We have previously documented that SRSRY competes with the bacterial-derived N-formyl-methionyl-leucyl-phenylalanine peptide (fMLF) for binding to FPR type 1 (FPR1) and that both SRSRY and fMLF promote cell migration by triggering FPR1 internalization. […] Quantification of cell-associated fluorescence was assessed by reading cell lysates with a fluorescence plate reader. RBL-2H3 cells lack FPR1, thus they display very low uptake that was not saturable with unlabeled fMLF (Fig 2A). […] To evaluate the effect of [SRSRY] on agonist-dependent FPR1 internalization, binding experiments were performed at 37°C. […] Thus, we assessed whether [SRSRY] elicits effects on fMLF-directed cell migration. RBL-2H3/ETFR cell migration toward 10 nM fMLF was monitored in real-time for 4 hours as Cell Index changes due to the adhesion of migrating cells to microelectrodes using the xCELLigence RTCA technology as previously described. […]
Fig 2 Both linear and cyclic SRSRY peptides bind to FPR1. […] Fluorimetric measurement of cell-associated fluorescence was assed using 485 nm excitation and 535 nm emission filters. Data are expressed as a percentage of the fluorescence associated to RBL-2H3 cells exposed to FITC-fMLF alone (CTL = 100%) and represent a mean ± SD from triplicates. *Statistical significance (t-test) against None with p<0.001. […] Cell migration of RBL-2H3/ETFR cells monitored by the xCELLigence system. […]

N=C(N)NCCC[C@@H]1NC(=O)[C@H](CO)NC(=O)[C@H](Cc2ccc(O)cc2)NC(=O)[C@H](CCCNC(=N)N)NC(=O)[C@H](CO)NC1=O [[SRSRY], [Ser-Arg-Ser-Arg-Tyr]] (cyclo(RSRYS))
RBL-2H3/ETFR cell migration toward 10 nM fMLF in presence of peptide (10 nM fMLF mixed with 10 nM peptide): reduced to the basal level
RBL-2H3/ETFR cell migration toward the peptide alone (10 nM peptide in lower chamber): cell migration did not change significantly
